The values below come from PubChem BioAssay (NCI).

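Interpolation was linear, between the two tested concentrations surrounding the appropriate level; five concentrations were tested over 48 hours in 96-well plates. GI50 marks 50% less growth. TGI denotes the concentration required for complete inhibition of growth.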 Where only a bound is given, the exact number is not on record here.

Some test systems named below: HCT-15 colon; HS 578T breast; SK-MEL-5 melanoma; HT29 colon; MDA-MB-435; COLO 205 colon; IGROV1 ovarian; OVCAR-4 ovarian; SW-620 colon; CAKI-1 renal.
Common to all, as to test: NCI-60 cell line screen, 48 h

Take `O=C(Nc1cccnc1)c1cccs1`: the GI50 in the experiment on HCT-15 colon is 0.658 µM; in the experiment with HS 578T breast, over 100 µM; in the experiment on SK-MEL-5 melanoma, 53 µM; in the experiment on HT29 colon, 2.39 µM; in the experiment on MDA-MB-435 it was 2.43 µM; with COLO 205 colon it was 3.08 µM. Moreover, the GI50 in the experiment on IGROV1 ovarian is over 100 µM; in the experiment on OVCAR-4 ovarian, 1.11 µM; in the experiment on SW-620 colon it was 2.09 µM; in the experiment on CAKI-1 renal, 1.4 µM. Also, the TGI in the experiment with HCT-15 colon, in the experiment with HS 578T breast, in the experiment with SK-MEL-5 melanoma, in the experiment on HT29 colon, with MDA-MB-435 and with COLO 205 colon was over 100 µM throughout. In addition, the TGI with IGROV1 ovarian, in the experiment with OVCAR-4 ovarian, in the experiment on SW-620 colon and in the experiment with CAKI-1 renal was over 100 µM throughout.
Take `Nc1cccc(-c2nc3sccn3c2-c2ccnc(NCCCNS(=O)(=O)c3ccc(C(F)(F)F)cc3)n2)c1`: the GI50 is 3.33 µM in the experiment with HCT-15 colon; 4.05 µM in the experiment on HS 578T breast; 2.2 µM in the experiment with SK-MEL-5 melanoma; 2.85 µM with HT29 colon; 3.21 µM with MDA-MB-435; 3.32 µM in the experiment on COLO 205 colon. Moreover, the GI50 with IGROV1 ovarian was 3.75 µM; in the experiment with OVCAR-4 ovarian, 3.27 µM; with SW-620 colon, 8 µM; in the experiment on CAKI-1 renal, 3.25 µM. In addition, the TGI with HCT-15 colon is 29.9 µM; with HS 578T breast it was 61.6 µM; with SK-MEL-5 melanoma it was 5.2 µM; in the experiment on HT29 colon, 13.7 µM; in the experiment with MDA-MB-435, 12.3 µM; with COLO 205 colon, 13.1 µM. Besides, the TGI with IGROV1 ovarian is 23.4 µM; in the experiment on OVCAR-4 ovarian, 22.8 µM; in the experiment with SW-620 colon, over 100 µM; with CAKI-1 renal, 72.1 µM.
As for `COc1ccc(C2=C(Br)C(=O)OC2)cc1Cl`, the GI50 is 19.4 µM in the experiment with HCT-15 colon; 41.2 µM in the experiment on HS 578T breast; 29.1 µM in the experiment with SK-MEL-5 melanoma; 48.4 µM in the experiment with HT29 colon; 27.4 µM in the experiment with MDA-MB-435; 0.832 µM in the experiment with COLO 205 colon. The GI50 is 45.9 µM in the experiment on IGROV1 ovarian, 61.4 µM with OVCAR-4 ovarian, 32.2 µM with SW-620 colon and 8.52 µM with CAKI-1 renal. Also, the TGI in the experiment on HCT-15 colon was over 55.1 µM; in the experiment on HS 578T breast, over 88.5 µM; with SK-MEL-5 melanoma, over 100 µM; in the experiment on HT29 colon, over 100 µM; in the experiment with MDA-MB-435, over 100 µM; in the experiment on COLO 205 colon it was over 30.9 µM. In addition, the TGI with IGROV1 ovarian was over 100 µM; in the experiment with OVCAR-4 ovarian, over 100 µM; in the experiment with SW-620 colon it was over 100 µM; in the experiment with CAKI-1 renal it was 51.1 µM.
For the compound `Clc1cccc(Cn2cc(Cc3cn(Cc4cccc(Cl)c4)c4ccccc34)c3ccccc32)c1`, the GI50 in the experiment on HCT-15 colon, in the experiment with HS 578T breast, in the experiment with SK-MEL-5 melanoma, with HT29 colon, with MDA-MB-435 and in the experiment with COLO 205 colon was over 100 µM in each case. Further, the GI50 in the experiment with IGROV1 ovarian is 32 µM; in the experiment with OVCAR-4 ovarian, over 100 µM; in the experiment on SW-620 colon it was over 100 µM; in the experiment with CAKI-1 renal, over 100 µM. Besides, the TGI with HCT-15 colon, with HS 578T breast, in the experiment on SK-MEL-5 melanoma, with HT29 colon, in the experiment on MDA-MB-435 and with COLO 205 colon was over 100 µM in each case. Moreover, the TGI with IGROV1 ovarian, in the experiment with OVCAR-4 ovarian, with SW-620 colon and in the experiment on CAKI-1 renal was over 100 µM each time.
Turning to `CNC(=O)c1cc(Oc2ccc3nc(NC(=O)c4cc(C(F)(F)F)cc(C(F)(F)F)c4)sc3c2)ccn1`, the GI50 is 3.97 µM in the experiment with HCT-15 colon; 3.15 µM in the experiment on HS 578T breast; 1.68 µM in the experiment with SK-MEL-5 melanoma; 3.85 µM in the experiment on HT29 colon; 3.28 µM in the experiment on MDA-MB-435; 2.82 µM in the experiment with COLO 205 colon. Besides, the GI50 in the experiment with IGROV1 ovarian was 4.26 µM; in the experiment with OVCAR-4 ovarian, 3.12 µM; in the experiment on SW-620 colon, 7.56 µM; in the experiment on CAKI-1 renal it was 2.75 µM. Besides, the TGI in the experiment with HCT-15 colon stood at 25.1 µM; with HS 578T breast, 13.3 µM; with SK-MEL-5 melanoma it was 3.63 µM; in the experiment with HT29 colon it was 16.8 µM; in the experiment on MDA-MB-435, 20.4 µM; in the experiment on COLO 205 colon, 8.21 µM. The TGI in the experiment with IGROV1 ovarian amounted to 27 µM; with OVCAR-4 ovarian it was 27.2 µM; in the experiment on SW-620 colon, 63.8 µM; in the experiment with CAKI-1 renal, 10.7 µM.
On to `C=CC[Se]C(=O)c1ccccc1OC(C)=O`, for which the GI50 in the experiment with HCT-15 colon was 2.12 µM; in the experiment on HS 578T breast, 1.83 µM; in the experiment on SK-MEL-5 melanoma, 1.94 µM; in the experiment with HT29 colon, 2.65 µM; in the experiment with MDA-MB-435 it was 1.72 µM; with COLO 205 colon, 2.25 µM. For the same compound, the GI50 in the experiment on IGROV1 ovarian is 1.7 µM; in the experiment on OVCAR-4 ovarian, 1.68 µM; in the experiment with SW-620 colon, 1.87 µM; with CAKI-1 renal it was 2.35 µM. For the same compound, the TGI with HCT-15 colon is 5.09 µM; in the experiment on HS 578T breast it was 6.24 µM; in the experiment with SK-MEL-5 melanoma it was 4.09 µM; in the experiment on HT29 colon, over 100 µM; in the experiment with MDA-MB-435 it was 3.35 µM; in the experiment on COLO 205 colon, 5.01 µM. For the same compound, the TGI came to 3.11 µM in the experiment with IGROV1 ovarian, 3.19 µM in the experiment on OVCAR-4 ovarian, 3.9 µM in the experiment on SW-620 colon and 5.73 µM in the experiment on CAKI-1 renal.
As to `CC(C)[C@@H]1NC(=O)[C@]2(C)CSC(=N2)c2csc(n2)CNC(=O)C[C@@H](/C=C/CCS)OC1=O`, the GI50 in the experiment with HCT-15 colon was 5.12 µM; in the experiment on HS 578T breast, 0.0471 µM; in the experiment on SK-MEL-5 melanoma, 0.0446 µM; in the experiment on HT29 colon, 0.183 µM; in the experiment with MDA-MB-435, 0.0612 µM; in the experiment with COLO 205 colon, 0.228 µM. The GI50 with IGROV1 ovarian was 0.119 µM; with OVCAR-4 ovarian, 0.416 µM; with SW-620 colon, 0.227 µM; with CAKI-1 renal, 1.83 µM. The TGI is over 100 µM in the experiment on HCT-15 colon; 0.197 µM in the experiment on SK-MEL-5 melanoma; over 100 µM with HT29 colon; 4.17 µM with MDA-MB-435; 0.709 µM in the experiment on COLO 205 colon; 2.77 µM in the experiment with IGROV1 ovarian. The TGI in the experiment on OVCAR-4 ovarian was over 100 µM; in the experiment with SW-620 colon, 2.28 µM; with CAKI-1 renal, 7.83 µM.
